Here are results for one compound from patent USRE35801E, “Prophylactic and therapeutic composition for circulatory disorders and method of treatment” (priority 1985, dated 1998).

pIC50: −log10 of the molar value. “And” between values parts separate entries of the source, which are not always exact repeats. Identical values can stand only once.

The test system of data set [1] is lipid peroxidation (brain homogenate). In words: Inhibitory action of lipid peroxidation in brain homogenate (TBA value). In kind it is biochemical. To be noted: inhibition of lipid peroxidation, rat brain homogenate, 37° C., 30 minutes. The procedure:
(1) Inhibitory action of lipid peroxidation (a) Preparation of brain homogenate By use of Wister-strain male rat, brain homogenate was prepared following the procedure as described below. […] Next, a brain perfusion was conducted through the tube with ice-cooled 50 mM phosphate-buffered physiological saline (pH 7.4) hereinafter referred to as "PBS"), and the whole brain was extirpated. After removal of cerebellum, the wet weight of cerebrum was measured and, with addition of 9-fold amount of PBS, it was broken by a Teflon homogenizer in ice-water to be homogenized. After the brain homogenate was subjected to centrifugation at 4° C. at 2200 rpm for 10 minutes, 0.3 ml of the supernatant was apportioned into a light-shielding test tube equipped with a ground stopper, to provide a brain homogenate for evaluation of medicine. (b) Evaluation of test medicine To the brain homogenate produced in (a), 0.6 ml of PBS and 10 μl of ethanolic solution of a test medicine were added (to a final concentration of 500 μM or a concentration at a common ratio of 3 between 0.3 and 100 μm), and the mixture was heated in a warm bath at 37° C. for 30 minutes. […] Also, the same operation was performed by addition of 10 μl of ethanol (blank) in place of 10 μl ethanolic solution of the test medicine for measurement of blank. […] After shaking for about 30 seconds, the mixture was subjected to centrifugation at 3000 rpm for 10 minutes, and the supernatant was provided as a sample for measurement of peroxidized lipid.

The subject of data set [2] is drowsy pattern of electroencephalogram induced by phenobarbital or pentobarbital sodium salt. In words: Antagonistic action against drowsy pattern of electroencephalogram induced by phenobarbital or pentobarbital sodium salt. It is filed as in vivo, Wistar-strain male rat. To be noted: Rattus norvegicus; intravenous, sodium salt; drowsy EEG after PHB 30 mg/kg or PBT 5 mg/kg; read-out: Antagonistic action at dose or higher. The protocol: (2) Antagonistic action against drowsy pattern of so electroencephalogram induced by phenobarbital or pentobarbital sodium salt
A Wistar-strain male rat weighing about 400 g was intramasculary administered with 0.6 mg of d-tubocurarine to be immobilized and, while maintaining the rectal temperature at 37° to 38° C. under artificial respiration, the electroencephalogram of the left cerebral frontal cortex was measured and recorded. Also, within the left femoral artery and vein, cannulas for measurement of artery pressure and for administration of medicine were placed, respectively.
As the active ingredient of the present invention, sodium salt of the compound represented by Formula (I) was used and the respective doses of said active ingredient and 30 mg/kg of phenobarbital sodium salt (produced by Iwaki Seiyaku K.K.) (hereinafter called "PHB") or 5 mg/kg of pentobarbital sodium salt (hereinafter called PBT) were each dissolved in physiological saline and administered intravenously in a liquid amount of 1 ml/kg.
The action of the active ingredient of the present invention affecting the cortex electroencephalogram after PHB or PBT administration was investigated as follows; Namely, at the time of 5 minutes or later after PHB or PBT administration when increase of the slow-wave component can be clearly recognized on electroencephalogram, 1, 3, 10, 30 and 100 mg/kg of the active ingredient were administered. To the control group 1 ml/kg of physiological saline was intravenously administered.
Recording and analysis of electroencephalogram were continuously drawn together with artery pressure, heart rate and rectal temperature on the recorder through a multi-purpose monitoring recording device (model RM-85, produced by Nippon Koden K.K.). At the same time, electroencephalogram was recorded in data recorder (model A-65, produced by Sony K.K.), and compressed spectral array analysis was conducted by means of a computer for medical data processing (ATAC-450, produced by Nippon Koden K.K.).

In data set [3] the test system is rat. To be noted: rat oral administration; cited from earlier work.
Data set [4] relates to cerebral ischemia recirculation model. Nature of the data set: Protective action in cerebral ischemia recirculation model. To be noted: 3 mg/kg. On the set-up: key to Judgement of action: The case when restoration of electroencephalogram is judged as +; case when not recognized as -. In kind it is in vivo, Wistar-strain male rat.

What is called pIC50 is −log10 of the IC50, conventionally taken in molar units. The LD50 is the dose expected to kill half of the subjects tested.

The compound `CC1=NN(c2ccccc2)C(=O)C1` [Compound 1, 3-methyl-1-phenyl-2-pyrazolin-5-one] had a pIC50 in data set [1] of 4.74. Besides, in data set [2], the minimal effective dose was ≥ 1 mg/kg. Further, in data set [3], the LD50 is 3500 mg/kg. The “Survival time after recirculation, average” value in data set [4] (average) was 106 min. In data set [4] (individual animal), the Judgement of action entry is “+ and -”; the “Survival time after recirculation” value is 85 min and 126 min.
